Results reported in patent US11667602B2, “Compounds and their use” (AstraZeneca AB, priority 2020, dated 2023).
≈ marks a conversion by molar mass, not a printed value. Where two headings read alike, the source gives them in different places.

Columns and labels:
[1] = Human Plasma Protein Binding (Test B); format: in vitro ADME; settings: fraction unbound (fu)
Procedure, shortened: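 Values given as % free (fu) in human plasma, using the method of Wernevik et al. (2020). For compounds tested more than once, the arithmetic mean is given.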

[2] = Human Liver Microsomal Stability (Test C); format: in vitro ADME
Procedure, shortened: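 CLint (μl/min/mg protein) derived from compound depletion in human liver microsomes following a published standardized early-DMPK protocol; replicate determinations given as arithmetic mean.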

[3] = Rat Hepatocyte Stability (Test E); format: in vitro ADME; settings: geometric mean if run multiple times
Procedure, shortened: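 Intrinsic clearance in rat hepatocytes, expressed as μl/min/10^6 cells, following the literature integrated DMPK panel method. Repeat determinations combined as geometric mean.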

Solubility (Test F) = format: physicochemical; settings: arithmetic mean if run multiple times
Method: The assay was conducted according to the Solubility Assay described in pages 164-167 of Wernevik, J. et al., “A Fully Integrated Assay Panel for Early Drug Metabolism and Pharmacokinetics Profiling”, Assay and Drug Development Technologies, 2020, 18(4), 157-179. Data are reported in Table 36 as solubility ([…]. Where the assay was run multiple times for the same compound, the arithmetic mean is reported.

[4] = Human Hepatocyte Stability (Test D); format: in vitro ADME; settings: cryopreserved pooled human hepatocytes (LiverPool 10-Donor), geometric mean if run multiple times
Procedure, shortened: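 Intrinsic clearance (μL/min/10^6 cells), derived as kV/N from the log-linear loss of parent compound. Compound incubated at 37 °C with cryopreserved pooled human hepatocytes, 0.25×10^6 cells in 0.25 mL L-15; dosing solution 100 μM in acetonitrile. Singlicate incubations, cassette LC-MS; repeats reported as geometric mean.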

human RXFP1 = biological target: T1, human RXFP1 (Homo sapiens, UniProt Q9HBX9); test: RXFP1 Hu cAMP (Test A); format: cell-based; design: expressed in transfected cells; host or cells: Jump-In T-REx CHO-K1 cells (ThermoFisher), induced with 10 ng/ml doxycycline for 24 h
T1 sequence (Q9HBX9 1-757): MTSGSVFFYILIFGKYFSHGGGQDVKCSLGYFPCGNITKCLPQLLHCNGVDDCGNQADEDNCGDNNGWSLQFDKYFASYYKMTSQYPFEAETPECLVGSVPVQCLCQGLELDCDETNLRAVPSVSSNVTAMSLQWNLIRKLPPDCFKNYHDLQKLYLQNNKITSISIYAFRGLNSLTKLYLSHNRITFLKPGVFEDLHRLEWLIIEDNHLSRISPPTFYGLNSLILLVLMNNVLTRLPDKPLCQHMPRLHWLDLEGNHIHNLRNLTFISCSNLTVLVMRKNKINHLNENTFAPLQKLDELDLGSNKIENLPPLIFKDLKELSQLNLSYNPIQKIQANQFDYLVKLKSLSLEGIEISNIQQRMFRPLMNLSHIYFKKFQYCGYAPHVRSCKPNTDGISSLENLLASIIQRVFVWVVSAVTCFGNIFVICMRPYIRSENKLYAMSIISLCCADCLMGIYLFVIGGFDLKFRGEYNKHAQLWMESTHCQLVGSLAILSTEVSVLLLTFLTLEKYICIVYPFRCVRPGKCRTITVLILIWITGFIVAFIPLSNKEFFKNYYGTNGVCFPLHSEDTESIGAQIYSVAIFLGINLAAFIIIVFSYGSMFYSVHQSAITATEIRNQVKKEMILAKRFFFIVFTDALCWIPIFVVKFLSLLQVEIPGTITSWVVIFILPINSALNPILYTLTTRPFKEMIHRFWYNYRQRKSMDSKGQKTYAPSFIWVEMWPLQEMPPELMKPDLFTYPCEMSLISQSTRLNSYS
Procedure, shortened: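 Competitive HTRF cAMP readout (2 h, room temperature) in CHO-K1 cells stably expressing human RXFP1, induced with 10 ng/ml doxycycline for 24 h; IBMX 0.5 mM final.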

[5] = RXFP1 Hu cAMP, read-out: Test A EC50

SMILES	Test B Human Plasma Protein Binding (% free) [1]	microsomal CLint ([2]; human, liver microsomes)	hepatocyte CLint ([3]; rat, hepatocytes)	solubility (Solubility (Test F))	hepatocyte CLint at 1 µM ([4]; human)	Test A Sinf (human RXFP1; RXFP1 Hu cAMP)	EC50 (human RXFP1; [5])	microsomal CLint ([2]; human liver microsomes)	hepatocyte CLint ([3]; rat hepatocytes)	hepatocyte CLint at 1 µM [4]	EC50 (human RXFP1; Test A EC50, RXFP1 Hu cAMP)
COc1cc(F)c(O[C@H]2CC[C@@H](C(=O)O)CC2)cc1C(=O)N[C@@H]1[C@H]2CC[C@H](C2)[C@@H]1C(=O)Nc1ccc(F)c(C(F)(F)F)c1 [Example 179, (1S,4s)-4-(2-Fluoro-5-(((1S,2R,3S,4R)-3-((4-fluoro-3-(trifluoromethyl)phenyl)carbamoyl)bicyclo[2.2.1]heptan-2-yl)carbamoyl)-4-methoxyphenoxy)cyclohexane-1-carboxylic acid]	1 % free	42 µL/min/mg	32 µL/min/1e6 cells	> 800 µM	13 µL/min/1e6 cells	106%	16 nM				
COc1cc(F)c(-c2cnn(CCC(=O)O)c2)cc1C(=O)N[C@@H]1[C@H]2CC[C@H](C2)[C@@H]1C(=O)Nc1cccc(S(=O)(=O)C(F)(F)F)c1 [Example 255]	2 % free	26 µL/min/mg	12 µL/min/1e6 cells	1000 µM (≈ 653 µg/mL)	13 µL/min/1e6 cells	101%	550 nM				
COc1cc(C#N)c(OC2CCC(C)(C(=O)O)CC2)cc1C(=O)NC1C(C(=O)NCC2(C)CCC2)C2CCC1N2CCC(F)(F)F (single isomer, unassigned) [Example 536, (1R,4s)-4-(2-Cyano-4-methoxy-5-(((1S*,2S*,3R*,4R*)-3-(((1-methylcyclobutyl)methyl)carbamoyl)-7-(3,3,3-trifluoropropyl)-7-azabicyclo[2.2.1]heptan-2-yl)carbamoyl)phenoxy)-1-methylcyclohexane-1-carboxylic acid]	3.3 % free			420 µM (≈ 272 µg/mL)		97%		250 µL/min/mg	43 µL/min/1e6 cells	130 µL/min/1e6 cells	5.1 nM
COc1cc(F)c(O[C@H]2CC[C@@H](C(=O)O)CC2)cc1C(=O)N[C@@H]1[C@H]2CC[C@H](C2)[C@@H]1C(=O)Nc1ccc(C(F)F)cc1 [Example 181, (1S,4s)-4-(5-(((1S,2R,3S,4R)-3-((4-(Difluoromethyl)phenyl)carbamoyl)bicyclo[2.2.1]heptan-2-yl)carbamoyl)-2-fluoro-4-methoxyphenoxy)cyclohexane-1-carboxylic acid]	2.3 % free	13 µL/min/mg	48 µL/min/1e6 cells	680 µM (≈ 391 µg/mL)	4.1 µL/min/1e6 cells	95%	600 nM				
COc1cc(C#N)c(O[C@H]2CC[C@@](C)(C(=O)O)CC2)cc1C(=O)N[C@@H]1[C@H]2CC[C@H](C2)[C@@H]1C(=O)NC1(C)CCC1 [Example 90]	14 % free	< 3 µL/min/mg	18 µL/min/1e6 cells	800 µM (≈ 430 µg/mL)	< 1 µL/min/1e6 cells	111%	140 nM				
COc1cc(F)c(O[C@H]2CC[C@@](C)(C(=O)O)CC2)cc1C(=O)N[C@@H]1[C@H]2CC[C@H](C2)[C@@H]1C(=O)NCC(C)(C)C#N [Example 47]	21 % free	< 3 µL/min/mg	17 µL/min/1e6 cells	> 1000 µM	< 1 µL/min/1e6 cells	111%	200 nM				
COc1cc(F)c(-c2cnn(CC(=O)O)c2)cc1C(=O)N[C@H]1[C@@H](C(=O)Nc2cccc(S(=O)(=O)C(F)(F)F)c2)[C@@H]2C=C[C@H]1C2 [Example 271, 2-(4-(2-Fluoro-4-methoxy-5-(((1R,2R,3S,4S)-3-((3-((trifluoromethyl)sulfonyl)phenyl)carbamoyl)bicyclo[2.2.1]hept-5-en-2-yl)carbamoyl)phenyl)-1H-pyrazol-1-yl)acetic acid]	0.81 % free	< 3 µL/min/mg	7 µL/min/1e6 cells	920 µM (≈ 586 µg/mL)	3.7 µL/min/1e6 cells	98%					
COc1cc(F)c(O[C@H]2CC[C@@H](C(=O)O)CC2)cc1C(=O)N[C@@H]1[C@@H]2CC[C@@H](C2)[C@@H]1C(=O)Nc1cccc(S(F)(F)(F)(F)F)c1 [Example 509, (1S,4s)-4-(2-Fluoro-4-methoxy-5-(((1R,2R,3S,4S)-3-((3-(pentafluoro-A6-sulfaneyl)phenyl)carbamoyl)bicyclo[2.2.1]heptan-2-yl)carbamoyl)phenoxy)cyclohexane-1-carboxylic acid]	<0.070 % free	9.4 µL/min/mg	7 µL/min/1e6 cells	1000 µM (≈ 651 µg/mL)	5 µL/min/1e6 cells	125%	13 nM				
COc1cc(F)c(-c2ccc(C(N)=O)cc2)cc1C(=O)N[C@H]1[C@@H](C(=O)Nc2cccc(S(=O)(=O)C(F)(F)F)c2)[C@@H]2C=C[C@H]1C2 [Example 270, 6-Fluoro-4-methoxy-N3-((1R,2R,3S,4S)-3-((3-((trifluoromethyl)sulfonyl)phenyl)carbamoyl)bicyclo[2.2.1]hept-5-en-2-yl)-[1,1′-biphenyl]-3,4′-dicarboxamide]	<0.26 % free	120 µL/min/mg	38 µL/min/1e6 cells	2 µM (≈ 1.26 µg/mL)	32 µL/min/1e6 cells	107%	120 nM				
COc1cc(F)c(-c2ncc(CCC(=O)O)s2)cc1C(=O)N[C@@H]1[C@H]2CC[C@H](C2)[C@@H]1C(=O)Nc1cccc(S(=O)(=O)C(F)(F)F)c1 [Example 243]	2.2 % free	58 µL/min/mg	110 µL/min/1e6 cells	900 µM (≈ 603 µg/mL)	26 µL/min/1e6 cells	96%	99 nM				
COc1cc(Cl)c(O[C@H]2CC[C@@](C)(C(=O)O)CC2)cc1C(=O)N[C@@H]1[C@H]2CC[C@H](C2)[C@@H]1C(=O)NCC(C)(C)C(F)(F)F [Example 409]	3.4 % free	18 µL/min/mg	7.1 µL/min/1e6 cells	960 µM (≈ 579 µg/mL)	3.1 µL/min/1e6 cells	107%	15 nM				
COc1cc(C#N)c(O[C@H]2CC[C@@](C)(C(=O)O)CC2)cc1C(=O)N[C@@H]1[C@H]2CC[C@H](C2)[C@@H]1C(=O)NCC(F)(F)C(F)(F)F [Example 102]	12 % free	4.4 µL/min/mg	14 µL/min/1e6 cells	820 µM (≈ 493 µg/mL)	1.9 µL/min/1e6 cells	122%	160 nM				
COc1cc(F)c(O[C@H]2CC[C@@](C)(C(=O)O)CC2)cc1C(=O)N[C@@H]1[C@H]2CC[C@H](C2)[C@@H]1C(=O)NCC(C)(C)C [Example 35, (1S,4s)-4-(2-Fluoro-4-methoxy-5-(((1S,2R,3S,4R)-3-(neopentylcarbamoyl)bicyclo[2.2.1]heptan-2-yl)carbamoyl)phenoxy)-1-methylcyclohexane-1-carboxylic acid]	8.2 % free	14 µL/min/mg	23 µL/min/1e6 cells	> 730 µM	2.7 µL/min/1e6 cells						39 nM
COc1cc(F)c(-c2ccc(CCC(=O)O)nn2)cc1C(=O)N[C@@H]1[C@H]2CC[C@H](C2)[C@@H]1C(=O)Nc1cccc(S(=O)(=O)C(F)(F)F)c1 [Example 245]	5 % free	45 µL/min/mg	15 µL/min/1e6 cells	980 µM (≈ 651 µg/mL)	13 µL/min/1e6 cells	104%	640 nM				
